Values joined by “and” are separate entries in the source; they are usually repeats but may differ in a detail not shown here. Equal entries are not always repeated. “Also recorded” adds a separate entry of the source. Where two headings read alike, the source gives them in different places.
What was measured:
[1] = biological target: purified human TTR (Homo sapiens, UniProt P02766); experiment: Fluorescence polarization (FP) binding assay, ligands to TTR in buffer
[2] = biological target: TTR in human serum (Homo sapiens, UniProt P02766); experiment: TTR serum fluorescent probe exclusion (FPE) selectivity assay; format: binding; conditions: ligand 10 µM; for %FPE probe fluorescence: human serum, replicates
[3] = biological target: T1, human mu-opioid receptors (Homo sapiens, UniProt P35372); experiment: biochemical; format: binding
[4] = Serum stability assay of AG10-L2-Nal, human serum; format: in vitro ADME; conditions: 100 µM
Description: AG10-L2-Nal (100 μM) was incubated in sera, and the concentration remaining in respective media was determined at 0 and 48 h using HPLC. Bar graphs represent the mean of % compound remaining ± s.d. […] The plasma, brain tissue, and CSF were collected at 30 min after dosing. The ratio of the brain (ng/g) versus plasma concentration (ng/mL) is expressed as the percentage brain to plasma ratio. The ratio of the CSF (ng/mL) versus plasma concentration (ng/mL) is expressed as the percentage CSF to plasma ratio. Bar graphs show the respective mean (±s.d.) (n = 3 for each group). […] The concentration of the test compounds in plasma was determined at different time points and expressed as means ± s.d. of three biological replicates. Source data are provided as a Source Data file. […]
(Taiwan). The experimental procedure was performed as reported12. […]
Serum stability assay of AG10-L2-Nal. […] 100 μL samples were analyzed at 0 h, 24 h, and 48 h time intervals. […] The supernatant was analyzed using Waters™ XBridge C18 column (4.6x250 mm, 5μm) on Waters e2695 separations module HPLC system connected to a Waters 2998 photodiode array detector operating between the UV ranges of 200-400 nm. […]

[5] = Long-term stability assay of AG10-L2-Nal in PBS buffer; format: physicochemical; conditions: 100 µM, 37 °C, analysed weekly for four weeks
[6] = system: male Sprague-Dawley rats; experiment: Gastrointestinal (GI) transit (charcoal meal) assays; format: in vivo, rat; conditions: rat, in vivo
[7] = biological target: holo-RBP-TTR interaction (Homo sapiens, UniProt P02766); experiment: Effect on holo-RBP-TTR interaction in human serum (cross-linking, Western blot)
[8] = system: male Sprague-Dawley rats; conditions: rat, in vivo
[9] = in vivo; conditions: male, Sprague Dawley, rat, iv
[10] = in vitro; conditions: human, % Cell viability, replicates
[11] = biological target: T1, human mu-opioid receptors; experiment: biochemical; format: biochemical; set-up: host or cells: CHO-K1 (Chinese hamster ovary), membrane preparation

T1 sequence (P35372 whole entry): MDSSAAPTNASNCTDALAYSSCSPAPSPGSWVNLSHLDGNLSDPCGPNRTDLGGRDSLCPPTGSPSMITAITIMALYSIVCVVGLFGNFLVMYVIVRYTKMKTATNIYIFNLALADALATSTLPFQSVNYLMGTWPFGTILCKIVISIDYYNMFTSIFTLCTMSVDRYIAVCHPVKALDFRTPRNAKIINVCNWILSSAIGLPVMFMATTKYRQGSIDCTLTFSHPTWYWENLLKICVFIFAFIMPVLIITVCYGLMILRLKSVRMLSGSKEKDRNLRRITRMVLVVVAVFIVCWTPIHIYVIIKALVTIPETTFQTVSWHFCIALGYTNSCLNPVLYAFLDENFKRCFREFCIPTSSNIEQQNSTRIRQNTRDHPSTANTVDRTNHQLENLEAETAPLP

SMILES: C=CCN1CC[C@]23c4c5ccc(O)c4O[C@H]2[C@@H](OCc2cn(CCNCCCCCCOc4cc(OCCCc6c(C)n[nH]c6C)cc(C(=O)O)c4)nn2)CC[C@@]3(O)[C@H]1C5 [AG10-L2-Nal]
- Kd [1]: 333 nM
- % Fluorescence polarization (mean) ([1]; log [nM] inhibitor 0.990): 100.000%
- % Fluorescence polarization (mean) ([1]; log [nM] inhibitor 1.291): 106.646%
- % Fluorescence polarization (mean) ([1]; log [nM] inhibitor 1.592): 105.531%
- % Fluorescence polarization (mean) ([1]; log [nM] inhibitor 1.893): 103.770%
- % Fluorescence polarization (mean) ([1]; log [nM] inhibitor 2.194): 97.021%
- % Fluorescence polarization (mean) ([1]; log [nM] inhibitor 2.495): 90.708%
- % Fluorescence polarization (mean) ([1]; log [nM] inhibitor 2.796): 79.479%
- % Fluorescence polarization (mean) ([1]; log [nM] inhibitor 3.097): 54.083%
- % Fluorescence polarization (mean) ([1]; log [nM] inhibitor 3.398): 38.835%
- % Fluorescence polarization (mean) ([1]; log [nM] inhibitor 3.699): 31.550%
- % Fluorescence polarization (mean) ([1]; log [nM] inhibitor 4.000): 21.649%
- % Fluorescence polarization (mean) ([1]; log [nM] inhibitor […]): 0.000%
- % TTR occupancy in human serum ([2]; FPE probe 3.6 µM, 3 h reading relative to probe alone, text mean ± s.d., table replicates): 62.5 ± 1.1% and 62.04% and 62.07% and 64.05% and 61.92%
- %FPE probe fluorescence ([2]; time 0.000 h): 0.000%
- %FPE probe fluorescence ([2]; time 0.083 h): 0.018% and 0.756% and -2.232% and -2.399%
- %FPE probe fluorescence ([2]; time 0.250 h): -1.158% and 2.209% and 1.458% and -0.885%
- %FPE probe fluorescence ([2]; time 0.500 h): 4.241% and 3.528% and 5.089% and 2.218%
- %FPE probe fluorescence ([2]; time 1.000 h): 6.503% and 10.611% and 13.590% and 14.148%
- %FPE probe fluorescence ([2]; time 1.250 h): 9.009% and 13.005% and 15.989% and 16.127%
- %FPE probe fluorescence ([2]; time 1.500 h): 13.314% and 18.863% and 18.262% and 17.288%
- %FPE probe fluorescence ([2]; time 1.750 h): 17.598% and 21.285% and 22.377% and 21.648%
- %FPE probe fluorescence ([2]; time 2.000 h): 21.919% and 25.680% and 23.861% and 25.075%
- %FPE probe fluorescence ([2]; time 2.250 h): 26.163% and 28.876% and 26.928% and 27.418%
- %FPE probe fluorescence ([2]; time 2.500 h): 26.877% and 32.466% and 29.919% and 30.633%
- %FPE probe fluorescence ([2]; time 2.750 h): 34.129% and 34.947% and 31.920% and 33.937%
- %FPE probe fluorescence ([2]; time 3.000 h): 37.964% and 37.926% and 35.954% and 38.083%
- %FPE probe fluorescence ([2]; time 3.500 h): 44.335% and 44.718% and 41.995% and 45.800%
- %FPE probe fluorescence ([2]; time 3.750 h): 47.041% and 46.124% and 44.395% and 46.344%
- %FPE probe fluorescence ([2]; time 4.000 h): 49.775% and 49.574% and 47.863% and 50.648%
- %FPE probe fluorescence ([2]; time 4.250 h): 49.252% and 50.428% and 49.751% and 51.967%
- %FPE probe fluorescence ([2]; time 4.500 h): 53.631% and 53.865% and 52.939% and 52.730%
- %FPE probe fluorescence ([2]; time 4.750 h): 56.220% and 54.908% and 55.174% and 55.874%
- %FPE probe fluorescence ([2]; time 5.000 h): 57.139% and 56.055% and 53.820% and 57.315%
- %FPE probe fluorescence ([2]; time 5.250 h): 59.200% and 60.014% and 56.004% and 59.143%
- %FPE probe fluorescence ([2]; time 5.500 h): 60.336% and 59.246% and 59.233% and 60.795%
- %FPE probe fluorescence ([2]; time 5.750 h): 61.971% and 60.994% and 58.022% and 62.173%
- %FPE probe fluorescence ([2]; time 6.000 h): 64.344% and 63.419% and 61.650% and 63.934%
- % Inhibition of Control Specific Binding [3]: 88.5%
- fold better mu-opioid receptor binding affinity than MNTX [3]: 17 fold
- fold higher mu-opioid receptor binding affinity than AG10-L1-Nal [3]: 5.7 fold
- Ki ([3]; binding affinity to mu-opioid receptor (Ki)): 0.35 nM
- Ki ([3]; binding affinity to mu-opioid receptor (Ki) in the presence of TTR): 1.3 nM
- % compound remaining in human serum ([4]; 0 h, replicates): 101.76% and 98.77% and 99.47%
- % compound remaining in human serum ([4]; 37 °C, 48 h, table replicates): 100% and 100.03% and 100.96% and 96.87%
- chemical stability in PBS buffer [5]: stable in buffer for a least one month; also recorded: chemically stable in phosphate buffer saline for at least one month at 37 °C
- GI transit 2.5h as % of saline group [6]: 45.3% and 46.0% and 49.8% and 55.5% and 53.6% and 48.3%
- reversal of OIC in the presence of AG10 [6]: no improvement in the OIC
- GI transit as % of vehicle group, compound alone ([6]; sc): 95.27% and 87.87% and 102.14% and 105.69% and 102.69%
- interference with holo-RBP binding to TTR ([7]; 20 µM in human serum, 2 h 37 °C): does not interfere with
- %holo RBP binding to TTR ([7]; human serum, quantified from gel image, replicates (Supp Fig.14b)): 7% and 8.1% and 7.9%
- plasma concentration ([8]; male, Sprague-Dawley): 7600 ± 500 nM
- Hot plate latency [8]: 60 s
- hot plate latency [8]: significant analgesia
- reversal of morphine-induced analgesia in the presence of AG10 [8]: no reversal of analgesia
- hot plate latency ([8]; iv): 60 s
- AUC(0-inf) ([9]; 4.84 umol/kg): 16.9 ± 1.09 µM·h
- Vd ([9]; 4.84 umol/kg): 0.12 ± 0.02 L/kg
- clearance ([9]; 4.84 umol/kg): 4.83 mL/min/kg
- half-life ([9]; 4.84 umol/kg): 5.98 ± 0.81 h
- concentration at 0.03 h ([9]; 4.84 µmol/kg, plasma concentration, IV 4.84 µmol/kg, 0.03 h, individual animals): 48800 nM
- concentration at 1 h ([9]; 4.84 µmol/kg, plasma concentration, IV 4.84 µmol/kg, 1 h, individual animals): 295 nM
- concentration at 2 h ([9]; 4.84 µmol/kg, plasma concentration, IV 4.84 µmol/kg, 2 h, individual animals): 234 nM
- concentration at 12 h ([9]; 4.84 µmol/kg, plasma concentration, IV 4.84 µmol/kg, 12 h, individual animals): 9.6 nM
- viability at 72 h, 10 µM ([10]; 10 μM): 102%
- viability at 72 h, 100 µM ([10]; 100 μM): 112%
- IC50 [11]: 7.5 nM
- Kb [11]: 0.81 nM
- agonism relative to DAMGO [11]: 2%
- fold increase of morphine EC50 [11]: 950 fold
- fold more potent than naloxegol in functional assay [11]: 10 fold
